The record followed here is patent US7514432B2, “Compounds and methods of treating cell proliferative diseases, retinopathies and arthritis” (Exonhit Therapeutics SA, priority 2003, dated 2009).

The structures appear in SMILES notation. Like-named read-outs stand apart in the source and are kept apart here.

Data set [1] deals with HCT116. In words: Cell viability assay (MTT), HCT116. Type of data set: cell-based, human. The conditions noted are these: 1% DMSO. As to the method:
(§1) Table 12: 6-day cell viability assay (MTT) in the presence of 10% Fetal Bovine Serum and 1% DMSO, in HMEC1, HCT116, MDA-MB-231, MCF7 and NIH3T3 cell lines. 3 10^3 to 15 10^3 cells were seeded in 48-well plates in growth medium containing 10% FBS, with or without various concentrations of test compounds. Cell cultures were fed every 3 days with the appropriate media. Cell viability was determined on day 6. Data were analyzed and IC50s were calculated from dose-response curves using GraphPad Prism. Results summarized in the tables are mean±SEM of 1 to 8 independent experiments.
(§2) Table 13: 6-day cell viability assay (MTT) in the presence of 0.5% Fetal Bovine Serum and 1% DMSO, in HCT116 and MDA-MB-231 cell lines. 7.5 10^4 to 15 10^4 cells were seeded in 48-well plates in growth medium containing 10% FBS, with or without various concentrations of test compounds. Cell cultures were fed every 3 days with the appropriate media. Cell viability was determined on day 6. Data were analyzed and IC50s were calculated from dose-response curves using GraphPad Prism. Results summarized in the tables are mean±SEM of 1 to 2 independent experiments.
(§3) Table 14: 3-day cell viability assay (MTT) in the presence of 10% Fetal Bovine Serum and 1% DMSO, in DLD1, HCT116, MDA-MB-231, MCF7 and HeLa cells. 7.5 10^3 to 1.5 10^4 cells were seeded in 48-well plates in growth medium containing 10% FBS, with or without various concentrations of test compounds. Data were analyzed and IC50s were calculated from dose-response curves using GraphPad Prism. Results summarized in the tables are mean±SEM of 1 to 7 independent experiments.
(§4) Table 15: 16-hour cell viability assay (MTT) in the presence of 10% Fetal Bovine Serum and 1% DMSO, in HCT116, MDA-MB-231, NIH3T3, HepG2 and primary hepatocytes. 5 10^4 to 10 10^4 cells were seeded in 48-well plates in growth medium containing 10% FBS, with or without various concentrations of test compounds. Data were analyzed and IC50s were calculated from dose-reponse curves using GraphPad Prism. Results summarized in the tables are mean±SEM of 1 to 2 independent experiments.
(§5) In order to determine a compound's effect on cell viability, microculture tetrazolium assays (MTT) were performed as described by Carmichael et al. (1996) with modifications. Four human tumoral cell lines, namely HCT116 colon adenocarcinoma, H460 lung carcinoma, MCF-7 and MDA-MB-231 breast carcinoma cell lines, DLD1 colorectal adenocarcinoma, HeLa adenocarcinoma, HepG2 hepatocellular carcinoma. 3 immortalized but non tumorigenic cell lines, namely NIH3T3 mouse fibroblasts (American Type Culture Collection) and primary hepatocytes (Biopredic international), cultured according to their recommendations together with Human Microvasculature Endothelial Cell line HMEC1 (National Center for Infectious Diseases). Briefly, cells were seeded in 48-well plates 24 hours before drug addition. Cells were treated with 0 to 200 μM (11 concentrations) of compound solubilized in DMSO, adjusting the final concentration of DMSO to 1% in the well. 16 hours, and three or six days after treatment, 0.5 mg/ml MTT (Sigma) was added to the medium and cells were incubated for 1-5 hours at 37° C. before solubilization of formazan crystals in 100% DMSO. Absorbance was measured using a spectrophotometer at a wavelength of 550 nm. Data was analyzed using the GraphPad Prism software (GraphPad Software, Inc.), and IC50 (dose leading to 50% cell death) was calculated from the dose-response curves.

For data set [2], the system named is HMEC1. In words: Cell viability assay (MTT), HMEC1. Type of data set: cell-based, Human. The conditions noted are these: MTT, 10% FBS, 6-day treatment, 1% DMSO. As to the method:
as §1, §5

The subject of data set [3] is MDA-MB-231. In words: Cell viability assay (MTT), MDA-MB-231. It is filed as cell-based, human. The note with it: 1% DMSO. As to the method: as §1, §2, §3, §4, §5
In data set [4] the test system is NIH 3T3. In words: Cell viability assay (MTT), NIH 3T3. It is filed as cell-based, mouse. The note with it: 10% FBS, 1% DMSO. The protocol: as §1, §4, §5
Where [5] appears, read: Homo sapiens, HCT-116, 144 h, 10% FBS, 6-day treatment.

For orientation: melting point means the temperature, or range, at which the solid turns liquid. A word on the IC50: it is the concentration that gives 50% inhibition. For the compound `O=c1cc(CF)occ1OCCCCCSc1ccnc2cc(C(F)(F)F)ccc12` [EHT 8817, 5-(5-(7-(Trifluoromethyl)quinolin-4-ylthio)pentyloxy)-2-(fluoromethyl)-4H-pyran-4-one], the melting point worked out at 107 °C. Also, in data set [1] (setting [5]), the IC50 worked out at 12.1 µM. In data set [2] (Homo sapiens, HMEC-1, 144 h), the IC50 was 41 µM.

In turn, `O=C(CCCCOc1coc(CN2CCOCC2)cc1=O)Nc1ccnc2cc(C(F)(F)F)ccc12` [EHT 6037, 5-(6-(Morpholinomethyl)-4-oxo-4H-pyran-3-yloxy)-N-(7-(trifluoromethyl)quinolin-4-yl)pentanamide] registered a melting point of 126.8 °C.

`O=c1cc(CO)occ1OCCCCCSc1ccnc2cc(C(F)(F)F)ccc12` [EHT 5909, 2-Hydroxymethyl-5-[5-(7-trifluoromethyl-quinolin-4-ylsulfanyl)-pentyloxy]-4H-pyran-4-one]: the melting point is 133.2 °C (dec.).

As to `CC(C)(C)OC(=O)N1CCN(Cc2cc(=O)c(OCCCCCOc3ccnc4cc(Cl)ccc34)co2)CC1` [EHT 2580, tert-Butyl 4-((5-(5-(7-chloroquinolin-4-yloxy)pentyloxy)-4-oxo-4H-pyran-2-yl)methyl)piperazine-1-carboxylate], the melting point amounted to 130.2 °C.

`O=c1cc(CCl)occ1OCCCCCSc1ccnc2cc(C(F)(F)F)ccc12` [EHT 1494, 2-Chloromethyl-5-[5-(7-trifluoromethyl-quinolin-4-ylsulfanyl)-pentyloxy]-4H-pyran-4-one] returned a melting point of 38.2 °C.

`O=c1cc(COC2CCCCO2)occ1OCCCCCCCCSc1ccnc2cc(C(F)(F)F)ccc12` (stereo not drawn) [EHT 1006, 5-(8-(7-(Trifluoromethyl)quinolin-4-ylthio)octyloxy)-2-((tetrahydro-2H-pyran-2-yloxy)methyl)-4H-pyran-4-one] showed a melting point of 66.1 °C. The same compound returned an IC50 in data set [2] (Homo sapiens, HMEC-1, 144 h) of under 10 µM. For the same compound, the midpoint of inhibition in data set [2], the IC50, lay at 9.5 µM.

Take `O=c1cc(COC2CCCCO2)occ1OCCCCCCSc1ccnc2cc(C(F)(F)F)ccc12` (stereo not drawn) [EHT 6271, 2-(Tetrahydro-pyran-2-yloxymethyl)-5-[6-(7-trifluoromethyl-quinolin-4-ylsulfanyl)-hexyloxy]-4H-pyran-4-one]: the melting point was found to be 67.8 °C. In addition, the IC50 in data set [2] (Homo sapiens, HMEC-1, 144 h) was under 10 µM. Besides, 9 µM corresponded to half-maximal inhibition in data set [2] (IC50).

The compound `O=c1cc(CN2CCOCC2)occ1OCCOc1ccnc2cc(C(F)(F)F)ccc12` [EHT 6892, 5-(2-(7-(trifluoromethyl)quinolin-4-yloxy)ethoxy)-2-(morpholinomethyl)-4H-pyran-4-one] gave a melting point of 125.6 °C. In addition, the IC50 in data set [1] (setting [5]) came out at 101 µM.

In turn, `O=c1cc(CN2CCCCC2)occ1OCCCCCSc1ccnc2cc(C(F)(F)F)ccc12` [EHT 9317, 5-(5-(7-(Trifluoromethyl)quinolin-4-ylthio)pentyloxy)-2-((piperidin-1-yl)methyl)-4H-pyran-4-one] registered a melting point of 108.9 °C. In data set [1] (10% FBS, 6-day treatment), this compound registered an IC50 of 2.3 µM. In data set [1] (setting [5]), this compound gave an IC50 of under 4 µM. The same compound returned an IC50 in data set [2] (Homo sapiens, HMEC-1, 144 h) of 11.7 µM.

For `CC(=O)N1CCN(Cc2cc(=O)c(OCCCCCSc3ccnc4cc(C(F)(F)F)ccc34)co2)CC1` [EHT 3980, 5-(5-(7-(Trifluoromethyl)quinolin-4-ylthio)pentyloxy)-2-((4-acetylpiperazin-1-yl)methyl)-4H-pyran-4-one], the melting point amounted to 99.5 °C. In data set [1] (10% FBS, 6-day treatment), this compound returned an IC50 of 2.3 µM. The same compound gave an IC50 in data set [1] (setting [5]) of under 4 µM. Besides, the midpoint of inhibition in data set [2] (Homo sapiens, HMEC-1, 144 h), the IC50, lay at 38.5 µM.

With `CN1CCN(Cc2cc(=O)c(OCCCCCOc3ncnc4ccccc34)co2)CC1` [EHT 4063, 5-(5-(Quinazolin-4-yloxy)pentyloxy)-2-((4-methylpiperazin-1-yl)methyl)-4H-pyran-4-one], the melting point stood at 78.2 °C. For the same compound, in data set [1] (setting [5]), the IC50 is about 200 µM. The compound further gave an IC50 in data set [2] (Homo sapiens, HMEC-1, 144 h) of about 200 µM.

The compound `CS(=O)(=O)N1CCN(Cc2cc(=O)c(OCCCCCSc3ccnc4cc(C(F)(F)F)ccc34)co2)CC1` [EHT 8366, 5-(5-(7-(Trifluoromethyl)quinolin-4-ylthio)pentyloxy)-2-((4-Methylsulfonylpiperazin-1-yl)methyl)-4H-pyran-4-one] displayed a melting point of 66.3 °C.

`O=c1cc(CN2CCOCC2)occ1OCc1ccccc1CSc1ccnc2cc(C(F)(F)F)ccc12` [EHT 9069, 5-((2-((7-(Trifluoromethyl)quinolin-4-ylthio)methyl)phenyl)methoxy)-2-(morpholinomethyl)-4H-pyran-4-one] returned a melting point of 71.6 °C. In data set [3] (Homo sapiens, MDA-MB-231, 144 h, 10% FBS, 6-day treatment, read-out: IC50 μM, MDA-MB-231), the IC50 came to 13.5 µM. The compound also gave an IC50 in data set [1] (setting [5]) of 15.5 µM. Further, inhibition in data set [2] (Homo sapiens, HMEC-1, 144 h) was half-maximal at 34.8 µM (IC50). In data set [4] (Mus musculus, NIH3T3, 144 h, 6-day treatment), half-maximal inhibition (IC50) required 41.3 µM.

With `O=c1cc(COC2CCCCO2)occ1OCCCCSc1ccnc2cc(C(F)(F)F)ccc12` (stereo not drawn) [EHT 4745, 2-(Tetrahydro-pyran-2-yloxymethyl)-5-[4-(7-trifluoromethyl-quinolin-4-ylsulfanyl)-butoxy]-4H-pyran-4-one], the melting point was 97.3 °C (dec.). Further, the IC50 in data set [1] (setting [5]) came to 4.1 µM. The compound further returned an IC50 in data set [2] (Homo sapiens, HMEC-1, 144 h) of under 10 µM. Besides, the IC50 in data set [2] came to 9.8 µM.

The compound `CCN(CC)Cc1cc(=O)c(OCCCCCSc2ccnc3cc(C(F)(F)F)ccc23)co1` [EHT 7370, 2-((Diethylamino)methyl)-5-(5-(7-(trifluoromethyl)quinolin-4-ylthio)pentyloxy)-4H-pyran-4-one] came in with a melting point of 71.2 °C. In data set [1] (setting [5]), this compound showed an IC50 of 4.4 µM. The same compound gave an IC50 in data set [2] (Homo sapiens, HMEC-1, 144 h) of 12.1 µM.

As for `COCOCc1cc(=O)c(OCCCCCSc2ccnc3cc(C(F)(F)F)ccc23)co1` [EHT 2168, 2-Methoxymethoxymethyl-5-[5-(7-trifluoromethyl-quinolin-4-ylsulfanyl)-pentyloxy]-4H-pyran-4-one], the melting point is 122.1 °C (dec.). Besides, in data set [1] (setting [5]), inhibition was half-maximal at 6 µM (IC50). In data set [2] (Homo sapiens, HMEC-1, 144 h), this compound gave an IC50 of 19.3 µM.

For `Cl.Cl.Cl.O=c1cc(CN2CCNCC2)occ1OCCCCCOc1ccnc2cc(Cl)ccc12` [EHT 0872, 5-(5-(7-Chloroquinolin-4-yloxy)pentyloxy)-2-((piperazin-1-yl)methyl)-4H-pyran-4-one trihydrochloride], the melting point turned out to be 164.7 °C. In addition, inhibition in data set [1] (setting [5]) was half-maximal at 9.3 µM (IC50). Besides, it took 28.4 µM to reach half-maximal inhibition in data set [2] (Homo sapiens, HMEC-1, 144 h) (IC50).

Regarding `COc1cc2c(cc1O)CC[C@@H]1[C@@H]2CC[C@]2(C)[C@@H](O)CC[C@@H]12` [2ME, 2-Methoxyestradiol, reference compound], the IC50 in data set [3] (0.5% FBS, 6-day treatment, read-out: IC50 (μM), MDA-MB-231) is 15.4 µM; in data set [3] (10% FBS, 6-day treatment, read-out: IC50 μM, MDA-MB-231), 0.3 µM; in data set [3] (10% FBS, 16-hours treatment, read-out: IC50 μM, MDA-MB-231), over 100 µM; in data set [1] (0.5% FBS, 6-day treatment) it was 3.1 µM; in data set [1] (10% FBS, 6-day treatment), 0.8 µM; in data set [1] (10% FBS, 16-hours treatment), 128 µM. The IC50 in data set [2] is 2.1 µM; in data set [4] (6-day treatment), 2.4 µM; in data set [4] (16-hours treatment), over 150 µM.
